The record followed here is paper PMC11172478, “1,3,5-Triazine as Branching Connector for the Construction of Novel Antimicrobial Peptide Dendrimers: Synthesis and Biological Characterization” (International Journal of Molecular Sciences, 2024).

Residues, ends and D or L forms follow the SMILES beside them. *: point of attachment. βNA = c1ccc2cc(N*)ccc2c1 Where only a bound is given, the exact number is not on record here.

Experiment [1] deals with P. aeruginosa ATCC 27853. The experiment is described as follows: Intracellular accumulation of acridine orange. Format: cell-based. On the procedure: (§1) The assay was performed as previously described by Armengol et al. including control and clinical strains (E. coli 208691 and P. aeruginosa 666 SJD) previously studied by our group. Briefly, 96-well flat-bottomed microtiter plates (Guangzhou Jet Bio-Filtration Co., Ltd., Mianyang, China) were used. Overnight cultures were diluted in 1/4 Ringer’s solution to an OD520nm of 1.5, and 100 µL was added to the wells previously filled with 100 µL of Ringer’s solution. Acridine Orange (AO) was added to a final concentration of 0.25 µg/mL. The inoculated plates were then incubated for 30 min with shaking, after which the fluorescence was measured in a FLUOstar OPTIMA fluorescence microplate reader (BMG Labtech, Ortenberg, Germany).
(§2) To determine the uptake and accumulation of AO by bacteria, different scenarios were compared. First, bacteria were examined in the presence of PAβN at 20 µg/mL, and then in the presence of different concentrations of the dendrimers at (MIC, ½ MIC, ¼ MIC). The results in each condition were expressed as the percentage increase in fluorescence with respect to the control.

Another experiment has as its system P. aeruginosa 666 SJD. The experiment is described as follows: Intracellular accumulation of acridine orange. The format is cell-based. Particulars: PaβN 20 µg/mL, AO 0.25 µg/mL, 30 min, fluorescence. On the procedure: as §1, §2
For another experiment, the system named is E. coli 208691. The experiment is described as follows: Intracellular accumulation of acridine orange. Format: cell-based. The conditions noted are these: AO 0.25 µg/mL, 30 min. The procedure: as §1, §2
For experiment [2], the system named is P. aeruginosa ATCC 27853. The experiment is described as follows: Time-kill curves. Format: cell-based. Particulars: P. aeruginosa ATCC 27853, ½ MIC. The procedure:
The death kinetics of the active dendrimers were examined by plotting their time-kill curves against E. coli ATCC 25922 and P. aeruginosa ATCC 27853. The dendrimers were added to a starting bacterial inoculum of 10^6 CFU/mL in 5 mL of MHBCA medium. Dendrimers were tested at three different concentrations: MIC, ½ MIC and ¼ MIC. They were incubated for 24 h at 37 °C with shaking at 200 rpm. Samples were aseptically collected at 0, 1, 2, 4 and 6 h, serially diluted in Ringer ¼ and plated on Tryptone soy agar for colony counting.
The response of the microbial strains to the dendrimers was determined based on a logarithmic decrease in viable bacteria. A compound was considered active if it caused a reduction of ≥1 log10 CFU/mL, compared to the corresponding counts at time 0 h. In addition, a dendrimer was considered bactericidal if it caused a reduction of ≥3 log10 CFU/mL [40].

The test system of experiment [3] is E. coli ATCC 25922. The experiment is described as follows: Atomic force microscopy of treated bacteria. The format is cell-based. The conditions noted are these: E. coli ATCC 25922, dendrimer at MIC, 4 h, 37 °C. On the procedure:
E. coli ATCC 25922 was grown at 37 °C in Mueller Hinton cation-adjusted broth to an optical density of 0.25 at 625 nm. Dendrimers were added to a starting inoculum of 10^6 CFU/mL and incubated for 4 h at 37 °C with shaking. Untreated E. coli was included as a control. Cells in 1 mL of culture were centrifuged at 5000 rpm for 5 min and washed three times with 1 mL of sterile water. The bacterial cells were then resuspended in 100 µL of sterile water and a 10 µL drop was applied to a freshly cleaved mica surface and allowed to dry for approximately 10 min at room temperature.
The disk surfaces were analyzed by atomic force microscopy using an AFM XE-70 (Park Systems, Suwon, Korea) in non-contact mode with an ACTA 10M cantilever. […] The AFM images were processed using a scanning probe image processor XEI (Park Systems), correcting the plane of the AFM image for any coupling of the lateral plane and the z-axis caused by the instrument.

Experiment [4] is described as follows: Black lipid bilayers conductance. Particulars: DiPhPC/PS 4:1 in n-decane, 1 M KCl, −80, −120 and −180 mV. On the procedure:
The basic methods have been described previously. Membranes were prepared from 1% lipid a mixture of di-phytanoyl-phosphatidylcholine/di-phytanoylphosphatidylserine (DiPhPC/PS) in a molar ratio of 4:1 in n-decane (Avanti Polar Lipids, Delfzyl, The Netherlands). Bilayers were painted over a 2 mm^2 hole in a Teflon divider separating two compartments containing 5 mL each of a bathing solution of 1MKCl. Voltages were applied across the membrane via calomel electrodes connected by a salt bridge. The resultant current was amplified 10^8-fold by a current amplifier and recorded on a Rikadenski chart recorder. A concentration of 1 μg/mL of the dendrimer was used based on the results of Wu et al..

Experiment [5] has as its system P. aeruginosa ATCC 27853. The experiment is described as follows: Bacterial growth curves. Format: cell-based. The conditions noted are these: P. aeruginosa ATCC 27853, TSB, MIC, ½ MIC and ¼ MIC, 24 h, 37 °C, OD 850 nm. The procedure: (§3) The real-time effect of the peptide dendrimers was examined on the growth curves of E. coli ATCC 25922 and P. aeruginosa ATCC 27853. Volumes of 10 mL of TSB liquid cultures containing 1–5 × 10^5 CFU/mL in the logarithmic phase were adjusted in Falcon tubes. Peptide dendrimers were then added at MIC and sub-inhibitory concentrations (½ MIC and ¼ MIC). Incubation was performed in RTS-1C real-time reverse spin bioreactors RTS-1 (Biosan) for 24 h at 37 °C and 2000 rpm. Growth was measured noninvasively as optical density (OD 850 nm) every 15 min.

In experiment [6] the test system is P. aeruginosa ATCC 27853. Format: cell-based. Particulars: broth microdilution, MHBCA, 24 h, 37 °C, visual turbidity. On the procedure: (§4) The antimicrobial activity of the dendrimers was evaluated against E. coli ATCC 25922, P. aeruginosa ATCC 27853 and S. aureus ATCC 29213 strains. The MIC values were determined by the broth microdilution method. Briefly, the different strains were grown in Muller Hinton broth cation adjusted (MHBCA) medium overnight at 37 °C with shaking at 200 rpm. The bacterial cultures were then adjusted to OD625nm of 0.08–0.1, and 5 μL of each diluted suspension was added to 96-well plates previously filled with MHBCA and serially diluted peptides. Plates were incubated for 24 h at 37 °C. Finally, the MIC was determined macroscopically, based on the visual turbidity of the wells.
A general note: Dilution methods test growth across graded concentrations, often in twofold steps.

The subject of the next experiment is S. aureus ATCC 29213. The format is cell-based. The conditions noted are these: broth microdilution, MHBCA, 24 h, 37 °C, visual turbidity. On the procedure: as §4
Experiment [7] concerns E. coli ATCC 25922. The format is cell-based. Particulars: broth microdilution, MHBCA, 24 h, 37 °C, visual turbidity. The procedure:
as §4

In experiment [8] the test system is E. coli ATCC 25922. Format: cell-based. The procedure:
as §3

In the case of `NC(N)=NCCC[C@H](NC(=O)[C@@H](N)Cc1ccccc1)C(=O)Nc1ccc2ccccc2c1` [PaβN, reference compound] (H-Phe-Arg-βNA), in the experiment on P. aeruginosa ATCC 27853 [1] (susceptible strains, PaβN 20 µg/mL), the “changes in AO accumulation by susceptible strains (in words)” value is “almost negligible”. The “AO accumulation (untreated control = 100%)” value with P. aeruginosa 666 SJD is on record as not below 140%; in the experiment with E. coli 208691 (E. coli 208691, PaβN 20 µg/mL, fluorescence) it was not below 140%.

Consider “H-[(LK)3-EDA]4-(TA-EDA)2-TA-(LK)3-NH2 [Dendrimer 3]”, for which, in the experiment with P. aeruginosa ATCC 27853 [2], the “time-kill activity at ½ MIC (in words)” value is on record as “higher antimicrobial activity than dendrimer 1”. Further, the “bacterial surface alteration by AFM (in words)” value with E. coli ATCC 25922 [3] is listed as “significant surface damages”. Also, the “channel formation in planar lipid bilayers (conductance)” value in [4] is “did not induce membrane channels”. For the same compound, the “effect on growth curve (in words)” value in the experiment on P. aeruginosa ATCC 27853 [5] is “complete growth inhibition occurred at the MIC”; in the experiment with E. coli ATCC 25922 [8] (E. coli ATCC 25922, TSB, MIC, ½ MIC and ¼ MIC, 24 h, 37 °C, OD 850 nm), “inhibited the growth at the MIC and ½ MIC”. Besides, the “AO accumulation (in words)” value with P. aeruginosa ATCC 27853 [1] (P. aeruginosa ATCC 27853, dendrimers at MIC) is “slight increase in AO accumulation”; in the experiment on E. coli 208691 (E. coli 208691, dendrimers at MIC, ½ MIC, ¼ MIC), “increase in the AO accumulation with clear differences between the MIC, ½ MIC and ¼ MIC”. In addition, in the experiment with P. aeruginosa ATCC 27853 [6], the “MIC P. aeruginosa ATCC 27853” value stood at 32 µg/mL. Further, the “MIC S. aureus ATCC 29213” value in the experiment on S. aureus ATCC 29213 was more than 64 µg/mL. The “MIC E. coli ATCC 25922” value in the experiment on E. coli ATCC 25922 [7] was 8 µg/mL. Also, in the experiment with E. coli ATCC 25922 [8] (E. coli ATCC 25922, at concentrations lower than ½ MIC), the “delay in the onset of detectable turbidity” value was determined as 10 h. Besides, in the experiment with E. coli ATCC 25922 [8] (E. coli ATCC 25922, at ¼ MIC), the “prolongation of lag phase” value is listed as 6 h. In the experiment on E. coli ATCC 25922 [8] (E. coli ATCC 25922, growth curves, 24 h), the “concentration that completely inhibited detectable growth” value is listed as 4 µg/mL.
